Here are results for 37 compounds from a melting point compilation (Tetko et al.; mined from patent text by program, amines drawn as free bases though some values may be those of a salt).

Broadly, the melting point is the temperature of the solid-liquid transition. `O=C(O)c1cccc2cc(Sc3cc(Cl)ncn3)ccc12` gave a melting point of 209 °C.
The figure for `CCOC(=O)c1ccc(N2CCN(c3c(C)nc(N)nc3N)CC2)cc1` is 281 to 285 °C; for `COC(=O)c1ccc2nc3c(C)sc(C)c3c(=O)n2c1` it is 209 to 210 °C.
The figure for `N#Cc1cc(Cl)ccc1Oc1cccc(O)c1` is 118 to 120 °C; for `CCCc1cc(C(=O)O)ccc1OCc1ccccc1` it is 163 °C; for `COc1ccc(CCNc2nc(Cl)c3nc(-c4ccco4)oc3n2)cc1` it is 170 to 171 °C.
The figure for `CCCCCCCCCCCCCCCCCCNC(=O)OCC(CNS(=O)(=O)CCCI)n1nnnc1C` (configuration not stated) is 82.5 to 83.5 °C.
Turning to `CCCCOc1cccc(OCCBr)c1`, the melting point fell in the range of 32 to 34 °C.
To `S=C(NC(=S)c1c(Cl)cccc1Cl)Nc1ccc(Cl)c(Cl)c1` belongs 168 to 170 °C.
`O=C(NCc1ccccc1)c1ccnc(NC(=O)c2ccc(OC(F)(F)F)cc2)c1` gave a melting point of 151 to 153 °C.
The figure for `CCCn1nc2c(N)nc3ccccc3c2c1NCCC1CCN(C(C)=O)CC1` is 203 to 206 °C.
Regarding `Cc1ccc2c(c1)C(O)(C1=CCN(C)CC1)CC2c1ccc(F)cc1` (configuration not stated), the melting point fell in the range of 176 to 178 °C.
The figure for `O=C(O)c1ccc(I)nc1` is 177 to 179 °C.
To `NC(=O)NCCNc1ccc(N)cc1Cl` belongs 160 °C.
The figure for `Cc1n[nH]c2c1nc(-c1ccccc1)c1cc(Br)ccc12` is 299 to 300 °C; for `CCCCCCC(=O)CCCCCCCC(COC(C)=O)(COC(C)=O)NC(C)=O` it is 88 to 89 °C; for `C#CCOc1cc(-c2ccccc2)ncn1` it is 65.1 °C.
`CCOC(=O)c1c(C)[nH]c2ccc(OCC3CO3)cc12` (configuration not stated) came in with a melting point of 93 to 94 °C.
To `COc1cccc2c(C3CCN(C(=O)OC(C)(C)C)CC3)noc12` belongs 130 to 132 °C; to `O=C(O)c1cn(C2CN(C(c3ccccc3)c3ccccc3)C2)c2cc(F)c(F)cc2c1=O`, 245 to 247 °C.
The figure for `C(=C\c1nc(COc2ccc(CCCn3cnc(-c4ccccc4)c3-c3ccccc3)cc2)co1)/c1ccccc1` is 137 to 138 °C; for `COC(=O)Cc1sc(SCc2cc(O)nc(C)n2)nc1C` it is 130 to 132 °C.
To `OCc1cc2cccc(Br)c2s1` belongs 82 to 83 °C; to `Cc1ccc(Cc2cnc(NCCSCc3cccc(CN(C)C)c3)[nH]c2=O)cn1`, 122 to 125 °C.
The compound `Cc1c(C)c(Br)c2ncccc2c1C` displayed a melting point of 180 °C.
The figure for `CCOC(=O)Cc1c(-c2ccccc2)c2cc(CO)c(CO)cc2oc1=O` is 130 to 131 °C; for `C#CCN(C)CC(O)c1cccc(O)c1` (configuration not stated) it is 102 to 103 °C; for `COc1ccc(CCC(=O)c2cccc(O)c2)cc1OC` it is 132 to 134 °C.
To `CCCCCS(=O)(=O)NC(=O)CCc1cc(OC(C)C)nn1Cc1ccc(C(F)(F)F)cc1Cl` belongs 147 to 149 °C; to `CCc1cn2c(N)c(Cl)cc(C(=O)NC3CCN(CCCOC)CC3)c2n1`, 179 °C.
For the compound `CCCCn1c(=O)cc(NN)n(Cc2ccc(OC)cc2)c1=O`, the melting point was 167 to 170 °C.
To `Cc1c(Sc2ccc(Cl)cc2)nn(-c2ccc(O)cc2)c(=O)c1C#N` belongs 261 to 263 °C; to `CCCCc1ccc(/C(Cl)=C/c2ccc(Br)cc2)cc1`, 59 to 61 °C.
To `CNC(=S)N1CCc2ncn(C)c2C1` belongs 235 °C; to `Cc1nc(OCC=C(F)F)c(C#N)c(N2CCc3ccccc3CC2)n1`, 158 to 159 °C; to `CN(C)C(=O)c1cc(-c2ccccc2)c(=O)[nH]c1-c1c(Cl)cccc1C#N`, 264 to 267 °C.
The figure for `CN1C(=O)CCC2(C)c3ccc(Sc4ccc5ccccc5n4)cc3CCC12` (single isomer, unassigned; (+)) is 175 to 177 °C.
